pIC50: −log10 of the molar value.
Legend:
MDA-MB-436 cells = test: Growth inhibition assay against BRCA mutant human breast cancer MDA-MB-436 cell line (CCK-8); assay type: cell-based; settings: Homo sapiens, MDA-MB-436, […], proliferation of MDA-MB-436 cells, 7 days
[1] = molecular target: recombinant poly(ADP-ribose) polymerase 1 (PARP1) (Homo sapiens (Human), UniProt P09874)
[2] = molecular target: recombinant poly(ADP-ribose) polymerase 2 (PARP2); test: PARP2 chemiluminescent assay; assay type: biochemical; settings: inhibition of PARP2 enzyme activity, chemiluminescence

Sequence of recombinant poly(ADP-ribose) polymerase 1 (PARP1) (P09874 whole entry): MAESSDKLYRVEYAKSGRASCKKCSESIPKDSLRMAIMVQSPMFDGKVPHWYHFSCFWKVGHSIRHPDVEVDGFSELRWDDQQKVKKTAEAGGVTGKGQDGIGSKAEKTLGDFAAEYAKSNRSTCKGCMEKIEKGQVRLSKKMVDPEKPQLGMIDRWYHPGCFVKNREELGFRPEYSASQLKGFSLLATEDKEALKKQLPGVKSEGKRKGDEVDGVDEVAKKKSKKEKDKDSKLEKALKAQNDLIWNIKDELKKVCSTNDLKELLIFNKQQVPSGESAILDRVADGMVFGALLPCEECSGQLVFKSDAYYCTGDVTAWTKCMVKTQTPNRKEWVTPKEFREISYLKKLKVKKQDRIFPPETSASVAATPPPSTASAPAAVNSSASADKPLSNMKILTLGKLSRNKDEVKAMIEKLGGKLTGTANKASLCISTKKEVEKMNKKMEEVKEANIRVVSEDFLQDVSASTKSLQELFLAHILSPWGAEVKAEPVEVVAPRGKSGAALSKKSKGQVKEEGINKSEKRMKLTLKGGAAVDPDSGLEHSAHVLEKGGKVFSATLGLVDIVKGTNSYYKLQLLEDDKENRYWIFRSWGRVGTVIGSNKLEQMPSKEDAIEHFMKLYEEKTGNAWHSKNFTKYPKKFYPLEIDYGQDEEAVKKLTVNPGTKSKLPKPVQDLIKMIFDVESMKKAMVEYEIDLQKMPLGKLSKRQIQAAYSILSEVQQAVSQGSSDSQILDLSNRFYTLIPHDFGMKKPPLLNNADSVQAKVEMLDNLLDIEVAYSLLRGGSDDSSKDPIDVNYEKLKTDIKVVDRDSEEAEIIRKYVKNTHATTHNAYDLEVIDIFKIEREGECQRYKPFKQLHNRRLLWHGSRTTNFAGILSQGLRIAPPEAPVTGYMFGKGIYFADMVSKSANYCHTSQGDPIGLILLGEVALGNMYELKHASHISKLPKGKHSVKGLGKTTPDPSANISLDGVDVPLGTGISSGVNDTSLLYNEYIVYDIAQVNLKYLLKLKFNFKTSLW

Compound: CNC(=O)c1ccc(N2CCN(Cc3ccc4c(c3)[nH]c(=O)c3cn(C)nc34)CC2)c(C)n1 [Example 9, 7-((4-(2-methyl-6-(methylcarbamoyl)pyridin-3-yl)piperazin-1-yl)methyl)-2-methyl-2,5-dihydro-4H-pyrazolo[4,3-c]quinolin-4-one]
- pIC50 (MDA-MB-436 cells): 8.49
- pIC50 [1]: 8.61
- IC50 [2]: 3280 nM

Compound: CNC(=O)c1ccc(N2CCN(Cc3ccc4c(c3)[nH]c(=O)c3[nH]ccc34)CC2)c(C)n1 [Example 10, 7-((4-(2-methyl-6-(methylcarbamoyl)pyridin-3-yl)piperazin-1-yl)methyl)-3,5-dihydro-4H-pyrrolo[2,3-c]quinolin-4-one]
- pIC50 (MDA-MB-436 cells): 7.81
- pIC50 [1]: 8.08
- IC50 [2]: > 10000 nM

Compound: CNC(=O)c1ccc(N2CCN(Cc3ccc4c(c3)[nH]c(=O)c3ncoc34)CC2)c(C)n1 [Example 12, 7-((4-(2-methyl-6-(methylcarbamoyl)pyridin-3-yl)piperazin-1-yl)methyl)oxazolo[4,5-c]quinolin-4(5H)-one]
- pIC50 (MDA-MB-436 cells): 8.94
- pIC50 [1]: 8.95
- IC50 [2]: 6370 nM

Compound: CNC(=O)c1ccc(N2CCN(Cc3ccc4c(c3)[nH]c(=O)c3ocnc34)CC2)c(C)n1 [Example 14, 7-((4-(2-methyl-6-(methylcarbamoyl)pyridin-3-yl)piperazin-1-yl)methyl)oxazolo[5,4-c]quinolin-4(5H)-one]
- pIC50 (MDA-MB-436 cells): 7.67
- pIC50 [1]: 8.73
- IC50 [2]: > 10000 nM

Compound: CNC(=O)c1ccc(N2CCN(Cc3ccc4c(c3)[nH]c(=O)c3nc[nH]c34)CC2)c(C)n1 [Example 25, 7-((4-(2-methyl-6-(methylcarbamoyl)pyridin-3-yl)piperazin-1-yl)methyl)-1,5-dihydro-4H-imidazo[4,5-c]quinolin-4-one]
- pIC50 (MDA-MB-436 cells): 7.21
- pIC50 [1]: 8.47
- IC50 [2]: 2490 nM

Compound: CNC(=O)c1ccc(N2CCN(Cc3ccc4c(c3)[nH]c(=O)c3ncn(C)c34)CC2)c(C)n1 [Example 26, 7-((4-(2-methyl-6-(methylcarbamoyl)pyridin-3-yl)piperazin-1-yl)methyl)-1-methyl-1,5-dihydro-4H-imidazo[4,5-c]quinolin-4-one]
- pIC50 (MDA-MB-436 cells): < 7.00
- pIC50 [1]: 8.35
- IC50 [2]: 2420 nM

Compound: CNC(=O)c1ccc(N2CCN(Cc3ccc4c(c3)[nH]c(=O)c3c4ncn3C)CC2)c(C)n1 [Example 28, 7-((4-(2-methyl-6-(methylcarbamoyl)pyridin-3-yl)piperazin-1-yl)methyl)-3-methyl-3,5-dihydro-4H-imidazo[4,5-c]quinolin-4-one]
- pIC50 (MDA-MB-436 cells): 7.71
- pIC50 [1]: 8.62
- IC50 [2]: 2060 nM

Compound: CNC(=O)c1ccc(N2CCN(Cc3ccc4c(c3)[nH]c(=O)c3oncc34)CC2)c(C)n1 [Example 30, 7-((4-(2-methyl-6-(methylcarbamoyl)pyridin-3-yl)piperazin-1-yl)methyl)isoxazolo[5,4-c]quinolin-4(5H)-one]
- pIC50 (MDA-MB-436 cells): < 7.00
- pIC50 [1]: 6.86
- IC50 [2]: > 10000 nM

Compound: CNC(=O)c1ccc(N2CCN(Cc3ccc4c(c3)[nH]c(=O)c3c[nH]cc34)CC2)c(C)n1 [Example 34, 7-((4-(2-methyl-6-(methylcarbamoyl)pyridin-3-yl)piperazin-1-yl)methyl)-2,5-dihydro-4H-pyrrolo[3,4-c]quinolin-4-one]
- pIC50 (MDA-MB-436 cells): 8.30
- pIC50 [1]: 8.60
- IC50 [2]: 709 nM

Compound: CNC(=O)c1ccc(N2CCN(Cc3ccc4c(c3)[nH]c(=O)c3cn(C)cc34)CC2)c(C)n1 [Example 35, 7-((4-(2-methyl-6-(methylcarbamoyl)pyridin-3-yl)piperazin-1-yl)methyl)-2-methyl-2,5-dihydro-4H-pyrrolo[3,4-c]quinolin-4-one]
- pIC50 (MDA-MB-436 cells): 8.08
- pIC50 [1]: 8.53
- IC50 [2]: 584 nM

Compound: CNC(=O)c1ccc(N2CCN(Cc3ccc4c([nH]c(=O)c5cn[nH]c54)c3F)CC2)c(C)n1 [Example 45, 7-((4-(2-methyl-6-(methylcarbamoyl)pyridin-3-yl)piperazin-1-yl)methyl)-6-fluoro-1,5-dihydro-4H-pyrazolo[4,3-c]quinolin-4-one]
- pIC50 (MDA-MB-436 cells): 8.04
- pIC50 [1]: 9.19
- IC50 [2]: 278 nM

Compound: CNC(=O)c1ccc(N2CCN(Cc3ccc4c(c3)[nH]c(=O)c3c(C)noc34)CC2)c(C)n1 [Example 47, 7-((4-(2-methyl-6-(methylcarbamoyl)pyridin-3-yl)piperazin-1-yl)methyl)-3-methylisoxazolo[4,5-c]quinolin-4(5H)-one]
- pIC50 (MDA-MB-436 cells): 7.92
- pIC50 [1]: 9.07
- IC50 [2]: 504 nM

Compound: CNC(=O)c1ccc(N2CCN(Cc3ccc4c(c3)[nH]c(=O)c3c(F)c(C)nn34)CC2)c(C)n1 [Example 51, 7-((4-(2-methyl-6-(methylcarbamoyl)pyridin-3-yl)piperazin-1-yl)methyl)-3-fluoro-2-methylpyrazolo[1,5-a]quinoxalin-4(5H)-one]
- pIC50 (MDA-MB-436 cells): 8.07
- pIC50 [1]: 9.05
- IC50 [2]: 30.6 nM

Compound: CNC(=O)c1ccc(N2CCN(Cc3cc(F)c4c(c3)[nH]c(=O)c3cncn34)CC2)c(F)n1 [Example 53, 7-((4-(2-fluoro-6-(methylcarbamoyl)pyridin-3-yl)piperazin-1-yl)methyl)-9-fluoroimidazo[1,5-a]quinoxalin-4(5H)-one]
- pIC50 (MDA-MB-436 cells): 8.70
- pIC50 [1]: 9.60
- IC50 [2]: 469 nM

Compound: CNC(=O)c1ccc(N2CCN(Cc3cc(F)c4c(c3)[nH]c(=O)c3cncn34)CC2)c(Cl)n1 [Example 54, 7-((4-(2-chloro-6-(methylcarbamoyl)pyridin-3-yl)piperazin-1-yl)methyl)-9-fluoroimidazo[1,5-a]quinoxalin-4(5H)-one]
- pIC50 (MDA-MB-436 cells): 8.23
- pIC50 [1]: 9.28
- IC50 [2]: 648 nM

Compound: CNC(=O)c1ccc(N2CCN(Cc3ccc4c([nH]c(=O)c5cncn54)c3F)CC2)c(F)n1 [Example 55, 7-((4-(2-fluoro-6-(methylcarbamoyl)pyridin-3-yl)piperazin-1-yl)methyl)-6-fluoroimidazo[1,5-a]quinoxalin-4(5H)-one]
- pIC50 (MDA-MB-436 cells): 7.85
- pIC50 [1]: 9.33
- IC50 [2]: 776 nM

Compound: CNC(=O)c1ccc(N2CCN(Cc3ccc4c([nH]c(=O)c5cncn54)c3F)CC2)c(Cl)n1 [Example 56, 7-((4-(2-chloro-6-(methylcarbamoyl)pyridin-3-yl)piperazin-1-yl)methyl)-6-fluoroimidazo[1,5-a]quinoxalin-4(5H)-one]
- pIC50 (MDA-MB-436 cells): 8.39
- pIC50 [1]: 9.17
- IC50 [2]: 1570 nM

Compound: CNC(=O)c1ccc(N2CCN(Cc3ccc4c([nH]c(=O)n5ccnc45)c3F)CC2)c(F)n1 [Example 61, 8-((4-(2-fluoro-6-(methylcarbamoyl)pyridin-3-yl)piperazin-1-yl)methyl)-7-fluoroimidazo[1,2-c]quinazolin-5(6H)-one]
- pIC50 (MDA-MB-436 cells): 7.76
- pIC50 [1]: 8.65
- IC50 [2]: 7260 nM

Compound: CCNC(=O)c1ccc(N2CCN(Cc3ccc4c([nH]c(=O)n5ccnc45)c3F)CC2)c(F)n1 [Example 62, 8-((4-(2-fluoro-6-(ethylcarbamoyl)pyridin-3-yl)piperazin-1-yl)methyl)-7-fluoroimidazo[1,2-c]quinazolin-5(6H)-one]
- pIC50 (MDA-MB-436 cells): 7.33
- pIC50 [1]: 8.46
- IC50 [2]: > 10000 nM

Compound: CCNC(=O)c1ccc(N2CCN(Cc3ccc4c([nH]c(=O)n5ccnc45)c3F)CC2)c(C)n1 [Example 63, 8-((4-(2-methyl-6-(ethylcarbamoyl)pyridin-3-yl)piperazin-1-yl)methyl)-7-fluoroimidazo[1,2-c]quinazolin-5(6H)-one]
- pIC50 (MDA-MB-436 cells): 7.27
- pIC50 [1]: 8.41
- IC50 [2]: > 10000 nM

Compound: O=C(NC1CC1)c1ccc(N2CCN(Cc3ccc4c([nH]c(=O)n5ccnc45)c3F)CC2)c(F)n1 [Example 64, 8-((4-(2-fluoro-6-(cyclopropylcarbamoyl)pyridin-3-yl)piperazin-1-yl)methyl)-7-fluoroimidazo[1,2-c]quinazolin-5(6H)-one]
- pIC50 (MDA-MB-436 cells): 7.28
- pIC50 [1]: 8.56
- IC50 [2]: 5450 nM

Compound: Cc1nc(C(=O)NC2CC2)ccc1N1CCN(Cc2ccc3c([nH]c(=O)n4ccnc34)c2F)CC1 [Example 65, 8-((4-(2-methyl-6-(cyclopropylcarbamoyl)pyridin-3-yl)piperazin-1-yl)methyl)-7-fluoroimidazo[1,2-c]quinazolin-5(6H)-one]
- pIC50 (MDA-MB-436 cells): 7.27
- pIC50 [1]: 8.34
- IC50 [2]: > 10000 nM

Compound: CNC(=O)c1ccc(N2CCN(Cc3ccc4c(c3)[nH]c(=O)c3nn(C)cc34)CC2)c(C)n1 [Example 69, 7-((4-(2-methyl-6-(methylcarbamoyl)pyridin-3-yl)piperazin-1-yl)methyl)-2-methyl-2,5-dihydro-4H-pyrazolo[3,4-c]quinolin-4-one]
- pIC50 (MDA-MB-436 cells): 8.33
- pIC50 [1]: 9.11
- IC50 [2]: 5780 nM

Compound: CNC(=O)c1ccc(N2CCN(Cc3ccc4c(c3)[nH]c(=O)c3c4cnn3C)CC2)c(C)n1 [Example 71, 7-((4-(2-methyl-6-(methylcarbamoyl)pyridin-3-yl)piperazin-1-yl)methyl)-3-methyl-3,5-dihydro-4H-pyrazolo[3,4-c]quinolin-4-one]
- pIC50 (MDA-MB-436 cells): 7.96
- pIC50 [1]: 8.48
- IC50 [2]: 636 nM

Compound: N#Cc1ccc(N2CCN(Cc3ccc4c([nH]c(=O)c5c(F)cnn54)c3F)CC2)c(F)n1 [Example 195, 7-((4-(2-fluoro-6-cyanopyridin-3-yl)piperazin-1-yl)methyl)-3,6-difluoropyrazolo[1,5-a]quinoxalin-4(5H)-one]
- pIC50 (MDA-MB-436 cells): 8.07

Compound: CNC(=O)c1ccc(N2CCN(Cc3ccc4c([nH]c(=O)c5c(F)cnn54)c3F)C[C@H]2C)c(F)n1 [Example 196, (R)-7-((4-(2-fluoro-6-(methylcarbamoyl)pyridin-3-yl)-3-methylpiperazin-1-yl)methyl)-3-6-difluoropyrazolo[1,5-a]quinoxalin-4(5H)-one]
- pIC50 (MDA-MB-436 cells): 7.81

Compound: CNC(=O)c1ccc(N2CCN(Cc3ccc4c([nH]c(=O)c5c(C(C)C)cnn54)c3F)CC2)c(F)n1 [Example 203, 7-((4-(2-fluoro-6-(methylcarbamoyl)pyridin-3-yl)piperazin-1-yl)methyl)-3-isopropyl-6-fluoropyrazolo[1,5-a]quinoxalin-4(5H)-one]
- pIC50 (MDA-MB-436 cells): < 7.00

— patent publication US20250215013A1, “SUBSTITUTED TRICYCLIC COMPOUNDS AS PARP INHIBITORS AND THE USE THEREOF” (IMPACT THERAPEUTICS (SHANGHAI), INC., priority 2022, published 2025)
